According to US20010003848A1, “DNA SEQUENCES FOR AMMONIUM TRANSPORTER, PLASMIDS, BACTERIA, YEASTS, PLANT CELLS AND PLANTS CONTAINING THE TRANSPORTER” (priority 1993, published 2001):
Several values for one entry are separate records, joined by “and”; a condition that tells them apart may be missing. Equal entries are not always repeated. Where two headings read alike, the source gives them in different places.

Columns and labels:
Saccharomyces cerevisiae = details: cited from earlier work
[1] = tested on: yeast line 26972c::pFL61-MEP-a; format: cell-based, Saccharomyces cerevisiae; details: 10 mM glucose; for Uptake of ^14C-methylamine: 26972c::pFL61-MEP-a, two independent series; for Uptake of ^14C-methylamine in presence of carbonyl cyanide m-chlorophenylhydrazone: 26972c::pF161 MEP-a +CCCP 10 pM; for Uptake of ^14C-methylamine in presence of 0.1 mM dinitrophenol (DNP): 26972c::pFL61-MEP-a +DNP 0.1 mM
Method: (§1) The yeast lines 26972c::pFL61, 26972c::pFL61-MEP-a and their starting lines S1278b (Dubois & Grenson, 1979, Mol Gen Genet 175: 67-76, MEP-1/MEP-2 ura3) were grown in liquid medium with 1.7 g yeast nitrogen base without ammonium and without amino acids (Difco), 20 g agarose, 1% glucose (w/v), 0.5 mg/l proline until the culture reached the logarithmic phase. After centrifuging of each 25 ml of the culture the cells were washed with 10 mM phosphate pH 7 or pH 4 and taken up in 1.5 ml 10 mM phosphate buffer. Ten minutes before starting the transport measurements, it was made up to an end concentration of 10 mM glucose. […] of the suspension was added to a solution of 10 mM phosphate pH 4 or 7, 100 μM unlabelled methylamine and 5 μCi ^14C-labelled methylamine (0.1 mCi/1.9 μmol) (end concentrations). The uptake of the methylamine was measured after 10, 60, 120 and 180 seconds. For this, to 50 μl of starting material was taken and in a volume of 1 ml H2O+3 mM unlabelled methylamine absorbed on a glass fibre filter. After washing with 10 ml H2O+3 mM unlabelled methylamine the amount of ^14C-labelled methylamine taken up was measured by scintillation (Table Ia and Ib).

yeast strain Σ1278b = experiment: Uptake of ^14C-methylamine in yeast strain Σ1278b; format: cell-based, Saccharomyces cerevisiae; details: 10 mM glucose; for Uptake of ^14C-methylamine in presence of carbonyl cyanide m-chlorophenylhydrazone (CCCP): Σ1278b +CCCP 10 pM; for Uptake of ^14C-methylamine in presence of 0.1 mM dinitrophenol (DNP): Σ1278b +DNP 0.1 mM
Method: as §1

[2] = tested on: yeast strain 26972c::pFL61; experiment: Uptake of ^14C-methylamine in yeast strain 26972c::pFL61 (zero control, plasmid without cDNA insertion); format: cell-based, Saccharomyces cerevisiae; details: 10 mM glucose
Method: as §1

Structure (SMILES): CN [^14C-methylamine, methylamine]
- maximum speed Vmax (Saccharomyces cerevisiae; high affinity transporter with low capacity): 20 nmol/min per mg cells (dry weight)
- Km (Saccharomyces cerevisiae; high affinity transporter with low capacity, read-out: Km value): 250 µM
- Vmax (Saccharomyces cerevisiae; low affinity system with high capacity): 50 nmol/min per mg cells
- Km (Saccharomyces cerevisiae; low affinity system with high capacity, read-out: Km): 2000 µM
- Vmax (Saccharomyces cerevisiae; low affinity system with medium capacity): 33 nmol/min per mg cells
- Km (Saccharomyces cerevisiae; low affinity system with medium capacity, read-out: Km): 20000 µM
- Uptake of ^14C-methylamine ([1]; pH = 4, 10 sec): 204.80 cpm and 214.80 cpm
- Uptake of ^14C-methylamine ([1]; pH = 4, 60 sec): 283.80 cpm and 345.60 cpm
- Uptake of ^14C-methylamine ([1]; pH = 4, 120 sec): 434.40 cpm and 594.60 cpm
- Uptake of ^14C-methylamine ([1]; pH = 4, 180 sec): 479.60 cpm and 842.20 cpm
- Uptake of ^14C-methylamine ([1]; pH = 7, 10 sec): 302.80 cpm and 352.20 cpm
- Uptake of ^14C-methylamine ([1]; pH = 7, 60 sec): 1247.80 cpm and 1292.20 cpm
- Uptake of ^14C-methylamine ([1]; pH = 7, 120 sec): 3152.50 cpm and 3478.28 cpm
- Uptake of ^14C-methylamine ([1]; pH = 7, 180 sec): 8490.83 cpm and 6099.39 cpm
- Uptake of ^14C-methylamine (yeast strain Σ1278b; 1278b, pH = 7, 10 sec): 469.60 cpm
- Uptake of ^14C-methylamine (yeast strain Σ1278b; 1278b, pH = 7, 60 sec): 1022.80 cpm
- Uptake of ^14C-methylamine (yeast strain Σ1278b; 1278b, pH = 7, 120 sec): 6176.36 cpm
- Uptake of ^14C-methylamine (yeast strain Σ1278b; 1278b, pH = 7, 180 sec): 16826.67 cpm
- Uptake of ^14C-methylamine (yeast strain Σ1278b; Σ1278b, pH = 4, 10 sec): 289.00 cpm
- Uptake of ^14C-methylamine (yeast strain Σ1278b; Σ1278b, pH = 4, 60 sec): 1151.20 cpm
- Uptake of ^14C-methylamine (yeast strain Σ1278b; Σ1278b, pH = 4, 120 sec): 19605.46 cpm
- Uptake of ^14C-methylamine (yeast strain Σ1278b; Σ1278b, pH = 4, 180 sec): 32651.43 cpm
- Uptake of ^14C-methylamine ([2]; 26972c::pFL61, pH = 4, 10 sec, two independent series): 220.20 cpm and 117.20 cpm
- Uptake of ^14C-methylamine ([2]; 26972c::pFL61, pH = 4, 60 sec, two independent series): 200.60 cpm and 138.60 cpm
- Uptake of ^14C-methylamine ([2]; 26972c::pFL61, pH = 4, 120 sec, two independent series): 284.80 cpm and 197.40 cpm
- Uptake of ^14C-methylamine ([2]; 26972c::pFL61, pH = 4, 180 sec, two independent series): 317.60 cpm and 285.60 cpm
- Uptake of ^14C-methylamine ([2]; 26972c::pFL61, pH = 7, 10 sec): 202.20 cpm
- Uptake of ^14C-methylamine ([2]; 26972c::pFL61, pH = 7, 60 sec): 291.80 cpm
- Uptake of ^14C-methylamine ([2]; 26972c::pFL61, pH = 7, 120 sec): 524.80 cpm
- Uptake of ^14C-methylamine ([2]; 26972c::pFL61, pH = 7, 180 sec): 797.80 cpm

Structure (SMILES): N#CC(C#N)=NNc1cccc(Cl)c1 [CCCP, carbonyl cyanide m-chlorophenylhydrazone]
- Uptake of ^14C-methylamine in presence of carbonyl cyanide m-chlorophenylhydrazone ([1]; pH = 7, 10 sec): 484.60 cpm
- Uptake of ^14C-methylamine in presence of carbonyl cyanide m-chlorophenylhydrazone ([1]; pH = 7, 60 sec): 1407.00 cpm
- Uptake of ^14C-methylamine in presence of carbonyl cyanide m-chlorophenylhydrazone ([1]; pH = 7, 120 sec): 2597.92 cpm
- Uptake of ^14C-methylamine in presence of carbonyl cyanide m-chlorophenylhydrazone ([1]; pH = 7, 180 sec): 3620.36 cpm
- Uptake of ^14C-methylamine in presence of carbonyl cyanide m-chlorophenylhydrazone (CCCP) (yeast strain Σ1278b; pH = 7, 10 sec): 173.20 cpm
- Uptake of ^14C-methylamine in presence of carbonyl cyanide m-chlorophenylhydrazone (CCCP) (yeast strain Σ1278b; pH = 7, 60 sec): 316.80 cpm
- Uptake of ^14C-methylamine in presence of carbonyl cyanide m-chlorophenylhydrazone (CCCP) (yeast strain Σ1278b; pH = 7, 120 sec): 460.40 cpm
- Uptake of ^14C-methylamine in presence of carbonyl cyanide m-chlorophenylhydrazone (CCCP) (yeast strain Σ1278b; pH = 7, 180 sec): 608.00 cpm

Structure (SMILES): Cl.N [NH4Cl]
- inhibition of methylamine-uptake functions (Saccharomyces cerevisiae; both transport functions of Saccharomyces): inhibitable
- Uptake of ^14C-methylamine in presence of 0.5 mM NH4Cl (yeast strain Σ1278b; 1278b, pH = 7, 10 sec): 356.60 cpm
- Uptake of ^14C-methylamine in presence of 0.5 mM NH4Cl (yeast strain Σ1278b; 1278b, pH = 7, 60 sec): 885.60 cpm
- Uptake of ^14C-methylamine in presence of 0.5 mM NH4Cl (yeast strain Σ1278b; 1278b, pH = 7, 120 sec): 1237.80 cpm
- Uptake of ^14C-methylamine in presence of 0.5 mM NH4Cl (yeast strain Σ1278b; 1278b, pH = 7, 180 sec): 1597.40 cpm
- Uptake of ^14C-methylamine in presence of 0.5 mM NH4Cl ([2]; 26972c::pFL61, pH = 7, 10 sec): 271.60 cpm
- Uptake of ^14C-methylamine in presence of 0.5 mM NH4Cl ([2]; 26972c::pFL61, pH = 7, 60 sec): 795.80 cpm
- Uptake of ^14C-methylamine in presence of 0.5 mM NH4Cl ([2]; 26972c::pFL61, pH = 7, 120 sec): 1388.20 cpm
- Uptake of ^14C-methylamine in presence of 0.5 mM NH4Cl ([2]; 26972c::pFL61, pH = 7, 180 sec): 1773.00 cpm

Structure (SMILES): O=[N+]([O-])c1ccc(O)c([N+](=O)[O-])c1 [DNP]
- Uptake of ^14C-methylamine in presence of 0.1 mM dinitrophenol (DNP) ([1]; pH = 7, 10 sec): 378.00 cpm
- Uptake of ^14C-methylamine in presence of 0.1 mM dinitrophenol (DNP) ([1]; pH = 7, 60 sec): 1349.40 cpm
- Uptake of ^14C-methylamine in presence of 0.1 mM dinitrophenol (DNP) ([1]; pH = 7, 120 sec): 2794.44 cpm
- Uptake of ^14C-methylamine in presence of 0.1 mM dinitrophenol (DNP) ([1]; pH = 7, 180 sec): 2794.44 cpm
- Uptake of ^14C-methylamine in presence of 0.1 mM dinitrophenol (DNP) (yeast strain Σ1278b; pH = 7, 10 sec): 167.20 cpm
- Uptake of ^14C-methylamine in presence of 0.1 mM dinitrophenol (DNP) (yeast strain Σ1278b; pH = 7, 60 sec): 386.00 cpm
- Uptake of ^14C-methylamine in presence of 0.1 mM dinitrophenol (DNP) (yeast strain Σ1278b; pH = 7, 120 sec): 706.80 cpm
- Uptake of ^14C-methylamine in presence of 0.1 mM dinitrophenol (DNP) (yeast strain Σ1278b; pH = 7, 180 sec): 906.00 cpm
